In the supplement of paper PMC5908809:

Key:
[1] = test system: normal NK cells expanded with K562-aAPC; assay: percent inhibition of viability; higher = more inhibition; details: 72 h, IL-2 2.5 ng/mL
Protocol: (§1)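 Drug sensitivity and resistance testing on K562-aAPC-expanded normal NK cells: 5 concentrations (10-fold steps over a 10,000-fold range), 72 h at 37 °C, viability by CellTiter-Glo normalised to DMSO and benzethonium chloride controls; DSS from the fitted curve.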

DERL-7 (IL-2 2.5 ng/mL) [2] = assay: as above; details: 72 h
IMC-1 (IL-2 20 ng/mL) [3] = assay: as above; details: 72 h
KAI3 (IL-2 2.5 ng/mL) [4] = assay: as above; details: 72 h
KHYG-1 (IL-2 2.5 ng/mL) [5] = assay: as above; details: 72 h
NK-92 (IL-2 2.5 ng/mL) [6] = assay: as above; details: 72 h
NK-YS (IL-2 2.5 ng/mL) [7] = assay: as above; details: 72 h
NKL (IL-2 2.5 ng/mL) [8] = assay: as above; details: 72 h
SNK-6 (IL-2 2.5 ng/mL) [9] = assay: as above; details: 72 h
YT (IL-2 2.5 ng/mL) [10] = assay: as above; details: 72 h
[11] = test system: normal primary NK cells, pool 1 (3 donors) (IL-2 2.5 ng/mL); assay: as above; details: 72 h
[12] = test system: normal primary NK cells, pool 1 (3 donors), resting (IL-2 0 ng/mL); assay: as above; details: 72 h
[13] = test system: normal primary NK cells, pool 2 (3 donors) (IL-2 2.5 ng/mL); assay: as above; details: 72 h
[14] = test system: normal primary NK cells, pool 3 (3 donors) (IL-2 2.5 ng/mL); assay: as above; details: 72 h
[15] = test system: normal NK cells expanded with K562-aAPC; assay: drug sensitivity score (DSS) (DSS units); higher = more sensitive; extreme values may be limits of the assay; details: 72 h; IL-2 2.5 ng/mL
Protocol: as §1

DERL-7 (IL-2 2.5 ng/mL) [16] = assay: as above; details: 72 h
IMC-1 (IL-2 20 ng/mL) [17] = assay: as above; details: 72 h
KAI3 (IL-2 2.5 ng/mL) [18] = assay: as above; details: 72 h
KHYG-1 (IL-2 2.5 ng/mL) [19] = assay: as above; details: 72 h
NK-92 (IL-2 2.5 ng/mL) [20] = assay: as above; details: 72 h
NK-YS (IL-2 2.5 ng/mL) [21] = assay: as above; details: 72 h
NKL (IL-2 2.5 ng/mL) [22] = assay: as above; details: 72 h
SNK-6 (IL-2 2.5 ng/mL) [23] = assay: as above; details: 72 h
YT (IL-2 2.5 ng/mL) [24] = assay: as above; details: 72 h
[25] = test system: normal primary NK cells, pool 1 (3 donors) (IL-2 2.5 ng/mL); assay: as above; details: 72 h
[26] = test system: normal primary NK cells, pool 1 (3 donors), resting (IL-2 0 ng/mL); assay: as above; details: 72 h
[27] = test system: normal primary NK cells, pool 2 (3 donors) (IL-2 2.5 ng/mL); assay: as above; details: 72 h
[28] = test system: normal primary NK cells, pool 3 (3 donors) (IL-2 2.5 ng/mL); assay: as above; details: 72 h

CO[C@@H](C(=O)N1Cc2[nH]nc(NC(=O)c3ccc(N4CCN(C)CC4)cc3)c2C1)c1ccccc1 [Danusertib] (max concentration tested 10000 nM)
percent inhibition of viability [%]
Details	1 nM	10 nM	100 nM	1000 nM	10000 nM
DERL-7 (IL-2 2.5 ng/mL) [2]	4.21	7.76	28.8	56.9	73.3
IMC-1 (IL-2 20 ng/mL) [3]	-7.01	-4.49	6.37	93.6	99.5
KAI3 (IL-2 2.5 ng/mL) [4]	-6.41	-1.03	23.9	37.9	69.3
KHYG-1 (IL-2 2.5 ng/mL) [5]	-6.8	-6.2	5.51	66.7	86.5
NK-92 (IL-2 2.5 ng/mL) [6]	4	8.37	15.1	45.9	64.6
NK-YS (IL-2 2.5 ng/mL) [7]	-2.39	-4.33	9.93	70.3	61.7
NKL (IL-2 2.5 ng/mL) [8]	-10.8	-14.4	-11	20.2	64.9
SNK-6 (IL-2 2.5 ng/mL) [9]	-10.1	-21.1	-2.34	66.7	72.5
YT (IL-2 2.5 ng/mL) [10]	-0.26	-0.92	21.1	27.8	44.9
[1]	0.09	-2.41	-1.99	45	66.8
[11]	-7.78	14.4	8.28	17.6	41.4
[12]	2.29	22.1	18.6	2.51	-6.72
[13]	-7.19	11.2	11.8	13.2	39.9
[14]	-3.44	7.87	4.81	5.78	23.5

Details	drug sensitivity score
DERL-7 (IL-2 2.5 ng/mL) [16]	14.3
IMC-1 (IL-2 20 ng/mL) [17]	17.9
KAI3 (IL-2 2.5 ng/mL) [18]	10
KHYG-1 (IL-2 2.5 ng/mL) [19]	13.2
NK-92 (IL-2 2.5 ng/mL) [20]	10.4
NK-YS (IL-2 2.5 ng/mL) [21]	14.6
NKL (IL-2 2.5 ng/mL) [22]	6.51
SNK-6 (IL-2 2.5 ng/mL) [23]	12.2
YT (IL-2 2.5 ng/mL) [24]	7.27
[15]	8.98
[25]	4.29
[26]	0
[27]	3.85
[28]	1.46

CC1(COc2ccc3c(c2)ncn3-c2ccc3cccc(N4CCC(N)CC4)c3n2)COC1 [Crenolanib] (max concentration tested 10000 nM)
percent inhibition of viability [%]
Details	1 nM	10 nM	100 nM	1000 nM	10000 nM
DERL-7 (IL-2 2.5 ng/mL) [2]	9.4	0.68	2.82	50.6	101
IMC-1 (IL-2 20 ng/mL) [3]	-5.33	1.06	0.71	5.26	101
KAI3 (IL-2 2.5 ng/mL) [4]	-3.85	-6.78	-18.2	10.7	102
KHYG-1 (IL-2 2.5 ng/mL) [5]	2.86	-0.81	5.22	18.1	99.8
NK-92 (IL-2 2.5 ng/mL) [6]	-3.46	-7.66	2.06	50.1	102
NK-YS (IL-2 2.5 ng/mL) [7]	-3.61	-4.32	-1.2	16.6	101
NKL (IL-2 2.5 ng/mL) [8]	12.4	0.04	22.6	53	103
SNK-6 (IL-2 2.5 ng/mL) [9]	21.7	16.3	25	54.8	101
YT (IL-2 2.5 ng/mL) [10]	4.17	1.51	11.1	24.2	99.7
[1]	-3.71	-1.22	-0.36	37.5	101
[11]	2.4	-5.93	-3.03	22.4	100
[12]	-7.18	-27.8	-5.86	-10.3	98.2
[13]	-14.1	-6.62	2.71	32	99.4
[14]	-13.7	-6.99	10.3	22.4	100

Details	drug sensitivity score
DERL-7 (IL-2 2.5 ng/mL) [16]	11.6
IMC-1 (IL-2 20 ng/mL) [17]	6.39
KAI3 (IL-2 2.5 ng/mL) [18]	7.36
KHYG-1 (IL-2 2.5 ng/mL) [19]	8.48
NK-92 (IL-2 2.5 ng/mL) [20]	11.7
NK-YS (IL-2 2.5 ng/mL) [21]	8.29
NKL (IL-2 2.5 ng/mL) [22]	13.3
SNK-6 (IL-2 2.5 ng/mL) [23]	15.2
YT (IL-2 2.5 ng/mL) [24]	9.15
[15]	10.6
[25]	9.05
[26]	4.78
[27]	10.1
[28]	9.06
